{"source": "patent US12138256B2", "about": "“Treatment of cardiopulmonary disorders” (Bayer Aktiengesellschaft, priority 2021, dated 2024)", "key": {"[1]": {"tested_on": "allergen-induced late airway hyperresponsiveness and inflammation in sensitized mice", "experiment": "Chronic asthma model: ovalbumin sensitized BALB/c mice, airway hyperresponsiveness and BAL (C-3.3)", "format": "in vivo, mouse", "details": "for inhibition at 0.1 mg/kg: Mus musculus, dexamethasone 18 h and 1 h before each Ova challenge, comparative example 11 high dose of 100 μg/kg 2 h before", "procedure": "The study was conducted to investigate whether inhalative treatment with comparative example 11 has a protective effect on the experimentally allergen-induced late airway hyperresponsiveness and inflammation in sensitized mice. Female BALB/c mice were sensitized and boosted with Ovalbumin (Ova) and aluminium hydroxide adjuvant (day 0. 14 and 21) with the exception of the negative control group receiving NaCl. On day 28 and 29. the animals were challenged with Ova aerosol. On day 30, a hyperresponsiveness test followed by bronchoalveolar lavage (BAL) was performed in all animals of all groups. The treatment groups D (10 μg) and E (100 μg) were treated with comparative example 11 inhalationally 2 h before each Ova challenge. Group A and B, the positive and negative control groups, were treated correspondingly with the vehicle. The Ova-sensitized positive control group A should show the full allergic reaction and, in contrast, the sham-sensitized negative control group B should show no allergic response. As a reference group, the animals of group C were treated inhalative with the corticosteroid dexamethasone but—due to its different mechanism of action—18 h and 1 h before each Ova challenge (on day 27, 28 and 29). On day 30, 24 h after Ova challenge in the late allergic phase, lung function—especially RL—was measured in the orotracheally intubated mice and a test on airway hyperresponsiveness was performed (inhalational methacholine provocation in doubling dose steps). […] These inhibitory effects show the successful therapeutic intervention."}, "[2]": {"tested_on": "total specific airway resistance (sRaw)", "experiment": "Phase I, healthy male subjects, 7 days inhalation: total specific airway resistance sRaw by bodyplethysmography (C-4.1)", "format": "in vivo, human", "procedure": "Healthy White male subjects, aged 18 to 45 years and with a body mass index (BMI) above/equal 18.5 and below/equal 29.9 kg/m2 were treated in a clinical pharmacological phase I study on seven days with inhaled once daily doses of 480 μg or 1000 μg or 2000 μg (2 capsules of 1000 μg) (nominal dose) of dry powder formulations of example 2 or Placebo. The subjects inhaled the drug powder from capsules (see under D-1, e.g. tables 22 and 23) inserted into a handheld inhalation device by one deep inhalative breath. The dry powder formulation of the drug is dispersed into the airstream and fine particles are transported into the deep parts of the lung where it is intended to cause a vasodilation of the blood vessels in PH patients for a substantial reduction of increased blood pressure in the central pulmonary blood vessels in PAH patients or other subtypes of PH. This effect cannot be shown in subjects with healthy lungs. In addition inhaled drug causes a dilation of the bronchial airways and thus also improves disease states of lung diseases in PH patients with pathological bronchoconstriction. This effect was measured via bodyplethysmography as reduction of Specific Airway Resistance in healthy subjects. After the deep inhalative breath the subjects hold breath for 2 seconds, so that the dry powder drug condenses from the airstream onto the surface of the deeper lung areas where it is deposited close to its site of intended pharmacological action. The drug dissolutes over the day and equilibrates the lung via lining fluid."}}, "note": "Read-outs that look alike come from different tables or passages of the source.", "data": [{"molecule": "O=C(O)c1ccc(CCN(CCc2ccccc2OCc2ccc(-c3ccc(C(F)(F)F)cc3)cc2Cl)[C@H]2CCCc3nc(C(=O)O)ccc32)cc1", "note": "[comparative example 11, (5S)-5-{[2-(4-carboxyphenyl)ethyl][2-(2-{[3-chloro-4′-(trifluoromethyl)[biphenyl]-4-yl]methoxy}phenyl)ethyl]amino}-5,6,7,8-tetrahydroquinoline-2-carboxylic acid]", "values": [{"measurement": "inhibition at 0.1 mg/kg", "setting": "[1]; read-out: inhibition of the airway hyperresponsiveness (ED100)", "value": 38, "unit": "%"}, {"measurement": "inhibition at 0.1 mg/kg", "setting": "[1]; read-out: inhibition of the airway hyperresponsiveness (ED150)", "value": 32, "unit": "%"}, {"measurement": "inhibition of the eosinophilic influx", "setting": "[1]; high dose group (100 μg)", "value": 31, "unit": "%"}, {"measurement": "effect on airway hyperresponsiveness", "setting": "[1]; low dose (10 μg)", "value": "no or only marginal effects"}, {"measurement": "inhibition of the eosinophilic influx", "setting": "[1]; low dose group (10 μg)", "value": 19, "unit": "%"}]}, {"molecule": "O=C(O)c1ccc(CCN(CCc2ccccc2OCc2ccc(-c3ccc(C(F)(F)F)cc3)cc2Cl)[C@H]2CCCc3nc(C(=O)O)ccc32)cc1", "note": "[example 2, (5S)-{[2-(4-Carboxyphenyl)ethyl][2-(2-{[3-chloro-4′-(trifluoromethyl)biphenyl-4-yl]methoxy}phenyl)-ethyl]amino}-5,6,7,8-tetrahydroquinoline-2-carboxylic acid]", "values": [{"measurement": "total specific airway resistance, mean ± SD", "setting": "[2]; 480 μg, 0 D 00 H 00 M", "value": "1.078 ± 0.375", "unit": "kPa/sec"}, {"measurement": "total specific airway resistance, mean ± SD", "setting": "[2]; 480 μg, 0 D 02 H 00 M", "value": "0.839 ± 0.182", "unit": "kPa/sec"}, {"measurement": "total specific airway resistance, mean ± SD", "setting": "[2]; 480 μg, 0 D 06 H 00 M", "value": "0.800 ± 0.187", "unit": "kPa/sec"}, {"measurement": "total specific airway resistance, mean ± SD", "setting": "[2]; 480 μg, 2 D 02 H 00 M", "value": "0.883 ± 0.310", "unit": "kPa/sec"}, {"measurement": "total specific airway resistance, mean ± SD", "setting": "[2]; 480 μg, 4 D 02 H 00 M", "value": "0.807 ± 0.200", "unit": "kPa/sec"}, {"measurement": "total specific airway resistance, mean ± SD", "setting": "[2]; 480 μg, 6 D 04 H 00 M", "value": "0.798 ± 0.193", "unit": "kPa/sec"}, {"measurement": "total specific airway resistance, mean ± SD", "setting": "[2]; 480 μg, 7 D 00 H 00 M", "value": "0.823 ± 0.274", "unit": "kPa/sec"}, {"measurement": "total specific airway resistance, mean ± SD", "setting": "[2]; 480 μg, 7 D 02 H 00 M", "value": "0.777 ± 0.282", "unit": "kPa/sec"}, {"measurement": "total specific airway resistance, mean ± SD", "setting": "[2]; 480 μg, 7 D 06 H 00 M", "value": "0.803 ± 0.280", "unit": "kPa/sec"}, {"measurement": "total specific airway resistance, mean ± SD", "setting": "[2]; 480 μg, SCREENING", "value": "0.844 ± 0.327", "unit": "kPa/sec"}, {"measurement": "total specific airway resistance, mean ± SD", "setting": "[2]; 480 μg, SCREENING 2", "value": "0.832 ± 0.280", "unit": "kPa/sec"}, {"measurement": "total specific airway resistance, mean ± SD", "setting": "[2]; 480 μg, −0 D 18 H 00 M (pretreatment day)", "value": "0.921 ± 0.305", "unit": "kPa/sec"}, {"measurement": "total specific airway resistance, mean ± SD", "setting": "[2]; 480 μg, −0 D 22 H 00 M (pretreatment day)", "value": "0.928 ± 0.392", "unit": "kPa/sec"}, {"measurement": "total specific airway resistance, mean ± SD", "setting": "[2]; 480 μg, −1 D 00 H 00 M (pretreatment day)", "value": "0.939 ± 0.344", "unit": "kPa/sec"}, {"measurement": "total specific airway resistance, mean ± SD", "setting": "[2]; 1000 μg, 0 D 00 H 00 M", "value": "0.967 ± 0.233", "unit": "kPa/sec"}, {"measurement": "total specific airway resistance, mean ± SD", "setting": "[2]; 1000 μg, 0 D 02 H 00 M", "value": "0.859 ± 0.143", "unit": "kPa/sec"}, {"measurement": "total specific airway resistance, mean ± SD", "setting": "[2]; 1000 μg, 0 D 06 H 00 M", "value": "0.824 ± 0.180", "unit": "kPa/sec"}, {"measurement": "total specific airway resistance, mean ± SD", "setting": "[2]; 1000 μg, 2 D 02 H 00 M", "value": "0.797 ± 0.141", "unit": "kPa/sec"}, {"measurement": "total specific airway resistance, mean ± SD", "setting": "[2]; 1000 μg, 4 D 02 H 00 M", "value": "0.853 ± 0.172", "unit": "kPa/sec"}, {"measurement": "total specific airway resistance, mean ± SD", "setting": "[2]; 1000 μg, 6 D 04 H 00 M", "value": "0.787 ± 0.168", "unit": "kPa/sec"}, {"measurement": "total specific airway resistance, mean ± SD", "setting": "[2]; 1000 μg, 7 D 00 H 00 M", "value": "0.917 ± 0.227", "unit": "kPa/sec"}, {"measurement": "total specific airway resistance, mean ± SD", "setting": "[2]; 1000 μg, 7 D 02 H 00 M", "value": "0.764 ± 0.140", "unit": "kPa/sec"}, {"measurement": "total specific airway resistance, mean ± SD", "setting": "[2]; 1000 μg, 7 D 06 H 00 M", "value": "0.787 ± 0.188", "unit": "kPa/sec"}, {"measurement": "total specific airway resistance, mean ± SD", "setting": "[2]; 1000 μg, SCREENING", "value": "0.867 ± 0.376", "unit": "kPa/sec"}, {"measurement": "total specific airway resistance, mean ± SD", "setting": "[2]; 1000 μg, SCREENING 2", "value": "1.009 ± 0.340", "unit": "kPa/sec"}, {"measurement": "total specific airway resistance, mean ± SD", "setting": "[2]; 1000 μg, −0 D 18 H 00 M (pretreatment day)", "value": "0.901 ± 0.187", "unit": "kPa/sec"}, {"measurement": "total specific airway resistance, mean ± SD", "setting": "[2]; 1000 μg, −0 D 22 H 00 M (pretreatment day)", "value": "0.903 ± 0.255", "unit": "kPa/sec"}, {"measurement": "total specific airway resistance, mean ± SD", "setting": "[2]; 1000 μg, −1 D 00 H 00 M (pretreatment day)", "value": "0.996 ± 0.194", "unit": "kPa/sec"}, {"measurement": "total specific airway resistance, mean ± SD", "setting": "[2]; 2000 μg, 0 D 00 H 00 M", "value": "0.947 ± 0.143", "unit": "kPa/sec"}, {"measurement": "total specific airway resistance, mean ± SD", "setting": "[2]; 2000 μg, 0 D 02 H 00 M", "value": "0.677 ± 0.139", "unit": "kPa/sec"}, {"measurement": "total specific airway resistance, mean ± SD", "setting": "[2]; 2000 μg, 0 D 06 H 00 M", "value": "0.651 ± 0.149", "unit": "kPa/sec"}, {"measurement": "total specific airway resistance, mean ± SD", "setting": "[2]; 2000 μg, 2 D 02 H 00 M", "value": "0.748 ± 0.155", "unit": "kPa/sec"}, {"measurement": "total specific airway resistance, mean ± SD", "setting": "[2]; 2000 μg, 4 D 02 H 00 M", "value": "0.709 ± 0.178", "unit": "kPa/sec"}, {"measurement": "total specific airway resistance, mean ± SD", "setting": "[2]; 2000 μg, 6 D 04 H 00 M", "value": "0.722 ± 0.168", "unit": "kPa/sec"}, {"measurement": "total specific airway resistance, mean ± SD", "setting": "[2]; 2000 μg, 7 D 00 H 00 M", "value": "0.844 ± 0.097", "unit": "kPa/sec"}, {"measurement": "total specific airway resistance, mean ± SD", "setting": "[2]; 2000 μg, 7 D 02 H 00 M", "value": "0.716 ± 0.089", "unit": "kPa/sec"}, {"measurement": "total specific airway resistance, mean ± SD", "setting": "[2]; 2000 μg, 7 D 06 H 00 M", "value": "0.730 ± 0.151", "unit": "kPa/sec"}, {"measurement": "total specific airway resistance, mean ± SD", "setting": "[2]; 2000 μg, SCREENING", "value": "0.899 ± 0.150", "unit": "kPa/sec"}, {"measurement": "total specific airway resistance, mean ± SD", "setting": "[2]; 2000 μg, SCREENING 2", "value": "0.957 ± 0.140", "unit": "kPa/sec"}, {"measurement": "total specific airway resistance, mean ± SD", "setting": "[2]; 2000 μg, −0 D 18 H 00 M (pretreatment day)", "value": "0.943 ± 0.245", "unit": "kPa/sec"}, {"measurement": "total specific airway resistance, mean ± SD", "setting": "[2]; 2000 μg, −0 D 22 H 00 M (pretreatment day)", "value": "0.933 ± 0.165", "unit": "kPa/sec"}, {"measurement": "total specific airway resistance, mean ± SD", "setting": "[2]; 2000 μg, −1 D 00 H 00 M (pretreatment day)", "value": "0.962 ± 0.266", "unit": "kPa/sec"}, {"measurement": "decrease of total specific airway resistance sRaw compared to baseline", "setting": "[2]; 6 h after first dosing, all dose groups", "value": "−0.142 to −0.296", "unit": "kPa/sec"}]}]}
